# Results as given in patent publication US20140135359A1, “METHODS OF DESIGNING, PREPARING, AND USING NOVEL PROTONOPHORES” (priority 2012, published 2014).
# Test system: differentiated C2C12 skeletal muscle cells
# Experiment: 3H-deoxyglucose uptake in C2C12 myotubes
# Assay type: cell-based, murine
# Conditions: 18 h
# Method: 2.3 ^3H-deoxyglucose uptake in C2C12 myotubes: Cell culture and the ^3H-deoxyglucose uptake assay were performed as previously described [34B, 35B, 37B]. Briefly, C2C12 murine skeletal myoblasts (American Type Culture Collection; Manassas, Va.) were cultured under standard conditions in 12-well plates. Cells were proliferated to 80% confluence in high-glucose Dulbecco's modified Eagle's medium (DMEM; Wisent; St-Bruno, QC) supplemented with 10% fetal bovine serum (FBS; Wisent), 10% horse serum (HS), and antibiotics. Differentiation into multinucleated myotubes was then promoted with DMEM supplemented with 2% HS and antibiotics. All uptake assays were performed on 7-day differentiated cells, and treatments were timed accordingly. […] DMSO concentration was fixed at 0.1% for all conditions. Cells were routinely inspected for abnormal morphology by phase-contrast microscopy at the conclusion of the treatment period. […] Cells were then washed twice in glucose-free KPB at 37° C. before incubation for exactly 10 min at 37° C. in glucose-free KPB containing 0.5 μCi/ml 2-deoxy-D-[1-^3H]glucose (Amersham Biosciences; Buckinghamshire, UK). Cells were then placed on ice and immediately washed three times with ice-cold KPB. Cells were inspected for monolayer detachment and lysed in 0.1 N NaOH with scraping. […] Three independent experiments of 18 h treatment duration were performed for each of the selected test compounds, with three replicates per condition per experiment. Vehicle-control and 50 μM 2,4-dinitrophenol conditions were included on every plate. Some compounds were also tested at 50 μM under the following conditions: a 15 h treatment with vehicle only followed by a 3 h treatment with the test compound; a 15 h treatment with the test compound followed by a 3 h repeat treatment.
# Protocol for ^3H-deoxyglucose uptake assay in C2C12 or other skeletal muscle cells; C2C12 murine skeletal myoblasts (American Type Culture Collection; Manassas, Va.) may be cultured under standard conditions in 12-well plates. Cells may be proliferated to 80% confluence in high-glucose Dulbecco's modified Eagle's medium (DMEM) supplemented with 10% fetal bovine serum (FBS), 10% horse serum (HS), and antibiotics. Differentiation into multinucleated myotubes may be then promoted with DMEM supplemented with 2% HS and antibiotics. All uptake assays may be performed on 7-day differentiated cells, and treatment onset may be timed accordingly. Cells may be treated with reference substances (such as metformin (100 or 400 μM), phenformin (100 μM), or 2,4-dinitrophenol 10-100 μM), compounds described herein, or vehicle (DMSO) in complete differentiation medium. DMSO concentration may be fixed at 0.1% for all conditions. Cells may be routinely inspected for abnormal morphology by phase-contrast microscopy at the conclusion of the treatment period. […] Cells may be then washed twice in glucose-free KPB at 37° C. before incubation for exactly 10 min at 37° C. in glucose-free KPB containing 0.5 μCi/ml 2-deoxy-D-[1-3H]glucose (Amersham Biosciences; Buckinghamshire, UK). Cells may be then placed on ice and immediately washed three times with ice-cold KPB. Cells may be inspected for monolayer detachment and lysed in 0.1 N NaOH with scraping. […] Three or more independent experiments of 18 hours treatment duration may be performed for each test compound, with three or more replicates per condition per experiment. Vehicle-control and 2,4-dinitrophenol conditions may be included on every plate for the purpose of standardizing.
structure (smiles),measurement,setting,value
"O=[N+]([O-])c1ccc(O)c([N+](=O)[O-])c1 [2,4-dinitrophenol]",increase in basal glucose uptake,25 μM,66%
same,increase in basal glucose uptake,50 μM,119%
same,increase in basal glucose uptake,100 μM,169%
